US11780840B2 (Incyte Corporation, priority 2020, dated 2023)
pIC50: −log10 of the molar value.

Assays:
[1] = target: T1, pseudo-kinase domain (JH2, amino-acids 536-812 with 3 surface mutations W659A, W777A, F794H) of human Wild Type JAK2 (Homo sapiens, UniProt O60674, F794H/W659A/W777A); test: JAK2 LanthaScreen JH2-WT Binding Assay; conditions: JAK2 JH2-WT (0.145 nM), 50 nM Fluorescent JAK2-JH2 Tracer, 1 hour at 25° C.; read-out: JH2 BIND WT
T1 construct: pseudo-kinase domain (JH2, amino-acids 536-812 with 3 surface mutations W659A, W777A, F794H); His (C); Avi (biotinylated) (C); purchased BPS Bioscience 79463; host or cells: baculovirus expression system
T1 sequence (O60674 536-812 W659A/W777A/F794H): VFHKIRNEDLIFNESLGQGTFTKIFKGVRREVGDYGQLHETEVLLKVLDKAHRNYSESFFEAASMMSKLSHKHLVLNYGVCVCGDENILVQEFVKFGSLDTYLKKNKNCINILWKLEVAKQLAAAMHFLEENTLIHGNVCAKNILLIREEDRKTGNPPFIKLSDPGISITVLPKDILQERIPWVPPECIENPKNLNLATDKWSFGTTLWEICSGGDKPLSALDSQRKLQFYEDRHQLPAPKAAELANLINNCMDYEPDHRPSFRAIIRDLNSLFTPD
Description: Example B. JAK2 LanthaScreen JH2-WT Binding Assay
(§1) JAK2 JH2-WT binding assay utilizes pseudo-kinase domain (JH2, amino-acids 536-812 with 3 surface mutations W659A, W777A, F794H) of human Wild Type JAK2 expressed as C-terminal His-Avi-tagged, biotinylated protein in a baculovirus expression system (BPS Bioscience, Catalog #79463). The assay was conducted in black 384-well polystyrene plates in a final reaction volume of 20 μL. JAK2 JH2-WT (0.145 nM) was incubated with compounds (100 nL serially diluted in DMSO) in the presence of 50 nM Fluorescent JAK2-JH2 Tracer (MedChem Express Catalog #HY-102055) and 0.25 nM Streptavidin-Tb cryptate (Cisbio Part #610SATLB) in assay buffer (50 mM Tris, pH=7.5, 10 mM MgCl2, 0.01% Brij-35, 0.1% BSA, 1 mM EGTA, 5% Glycerol and 5 mM DTT). Non-specific binding was accessed in the presence of 2 mM ATP. After incubation for 1 hour at 25° C., LanthaScreen signals were read on a PHERAstar FS plate reader (BMG LABTECH). Data was analyzed with IDBS XLfit and GraphPad Prism 5.0 software using a four parameter dose response curve to determine IC50 for each compound.

[2] = target: T2, catalytic domain (JH1, amino acids 826-1132) of human JAK2 (Homo sapiens, UniProt O60674); test: JAK2 LanthaScreen JH1 Binding Assay; conditions: JAK2 JH1 (1.5 nM), 50 nM fluorescent JAK2-JH1 tracer, 2 hours at 25° C.; read-out: JH1 BIND
T2 construct: catalytic domain (JH1, amino acids 826-1132) of human JAK2; FLAG (N); purchased Carna Biosciences 08-445-20N; host or cells: baculovirus expression system
T2 sequence (O60674 826-1132): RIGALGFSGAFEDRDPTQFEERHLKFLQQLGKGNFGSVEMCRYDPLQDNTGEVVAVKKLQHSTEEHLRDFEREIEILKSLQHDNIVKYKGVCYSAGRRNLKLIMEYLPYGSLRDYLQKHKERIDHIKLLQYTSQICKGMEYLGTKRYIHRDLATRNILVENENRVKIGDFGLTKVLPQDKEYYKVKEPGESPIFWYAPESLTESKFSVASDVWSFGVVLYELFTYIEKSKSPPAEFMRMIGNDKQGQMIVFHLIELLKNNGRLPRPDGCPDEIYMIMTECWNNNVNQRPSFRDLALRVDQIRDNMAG
Description: Example A. JAK2 LanthaScreen JH1 Binding Assay
JAK2 JH1 binding assay utilizes catalytic domain (JH1, amino acids 826-1132) of human JAK2 expressed as N-terminal FLAG-tagged, biotinylated protein in a baculovirus expression system (Carna Biosciences, Product #08-445-20N). The assay was conducted in black 384-well polystyrene plates in a final reaction volume of 20 μL. JAK2 JH1 (1.5 nM) was incubated with compounds (100 nL serially diluted in DMSO) in the presence of 50 nM fluorescent JAK2-JH1 tracer and 0.5 nM Streptavidin-Tb cryptate (Cisbio Part #610SATLB) in assay buffer (50 mM Tris, pH=7.5, 10 mM MgCl2, 0.01% Brij-35, 0.1% BSA, 1 mM EGTA, 5% Glycerol and 5 mM DTT). Non-specific binding was accessed in the presence of 2 mM ATP. After incubation for 2 hours at 25° C., LanthaScreen signals were read on a PHERAstar FS plate reader (BMG LABTECH). Data was analyzed with IDBS XLfit and GraphPad Prism 5.0 software using a four parameter dose response curve to determine IC50 for each compound.

[3] = target: T3, pseudo-kinase domain (JH2, amino-acids 536-812 with 3 surface mutations W659A, W777A, F794H) of human V617F mutant JAK2 (Homo sapiens, UniProt O60674, F794H/V617F/W659A/W777A); test: JAK2 LanthaScreen JH2-V617F Binding Assay; conditions: JAK2 JH2-V617F (0.26 nM), 50 nM Fluorescent JAK2-JH2 Tracer, 1 hour at 25° C.; read-out: JH2 BIND V617F
T3 construct: pseudo-kinase domain (JH2, amino-acids 536-812 with 3 surface mutations W659A, W777A, F794H); His (C); Avi (biotinylated) (C); purchased BPS Bioscience 79498; host or cells: baculovirus expression system
T3 sequence (O60674 536-812 V617F/W659A/W777A/F794H): as the sequence (O60674 536-812 W659A/W777A/F794H) above, with V82F counted along it
Description: Example C. JAK2 LanthaScreen JH2-V617F Binding Assay
as §1, with “JH2-V617F” for “JH2-WT”, “V617F mutant” for “Wild Type”, “#79498).” for “#79463).”, “JH2-V617F (0.26” for “JH2-WT (0.145”

SMILES | pIC50 [1] | pIC50 [2] | pIC50 [3]
Cn1c(=O)n(-c2ccccc2)c2c3cc(-c4ccc(CN5CCC(S(C)(=O)=O)CC5)cc4)[nH]c3ncc21 [Example 1, 3-Methyl-7-(4-((4-(methylsulfonyl)piperidin-1-yl)methyl)phenyl)-1-phenyl-3,6-dihydroimidazo[4,5-d]pyrrolo[2,3-b]pyridin-2(1H)-one] | 7.00 to 8.00 | 7.00 to 8.00 | 6.30 to 7.00
COc1ccc(-n2c(=O)n(C)c3cnc4[nH]c(-c5ccc(CN6CCC(S(C)(=O)=O)CC6)cc5)cc4c32)cc1 [Example 2, 1-(4-Methoxyphenyl)-3-methyl-7-(4-((4-(methylsulfonyl)piperidin-1-yl)methyl)phenyl)-3,6-dihydroimidazo[4,5-d]pyrrolo[2,3-b] pyridin-2(1H)-one] | 7.00 to 8.00 | 7.00 to 8.00 | 6.30 to 7.00
Cn1c(=O)n(-c2ccc3occc3c2)c2c3cc(-c4ccc(CN5CCC(S(C)(=O)=O)CC5)cc4)[nH]c3ncc21 [Example 3, 1-(Benzofuran-5-yl)-3-methyl-7-(4-((4-(methylsulfonyl)piperidin-1-yl)methyl)phenyl)-3,6-dihydroimidazo[4,5-d]pyrrolo[2,3-b]pyridin-2(1H)-one] | 7.00 to 8.00 | 7.00 to 8.00 | 7.00 to 8.00
CS(=O)(=O)C1CCN(Cc2ccc(-c3cc4c(ncc5[nH]c(=O)n(-c6ccccc6)c54)[nH]3)cc2)CC1 [Example 4, 7-(4-((4-(Methylsulfonyl)piperidin-1-yl)methyl)phenyl)-1-phenyl-3,6-dihydroimidazo [4,5-d]pyrrolo[2,3-b]pyridin-2(1H)-one] | 6.30 to 7.00 | 7.00 to 8.00 | 6.30 to 7.00
CS(=O)(=O)C1CCN(Cc2ccc(-c3cc4c(ncc5c4n(-c4ccccc4)c(=O)n5CCO)[nH]3)cc2)CC1 [Example 5, 3-(2-Hydroxyethyl)-7-(4-((4-(methylsulfonyl)piperidin-1-yl)methyl)phenyl)-1-phenyl-3,6-dihydroimidazo[4,5-d]pyrrolo[2,3-b]pyridin-2(1H)-one] | < 6.00 | 6.30 to 7.00 | < 6.00
Cn1c(=O)n(-c2ccccc2)c2c3cc(-c4cnn(C5CCS(=O)(=O)C5)c4)[nH]c3ncc21 (stereo not drawn) [Example 6, 7-(1-(1,1-Dioxidotetrahydro-thiophen-3-yl)-1H-pyrazol-4-yl)-3-methyl-1-phenyl-3,6-dihydroimidazo[4,5-d]pyrrolo[2,3-b]pyridin-2(1H)-one] | 6.30 to 7.00 | 7.00 to 8.00 | 6.30 to 7.00
CN(CCCS(C)(=O)=O)Cc1ccc(-c2cc3c(ncc4c3n(-c3ccccc3)c(=O)n4C)[nH]2)cc1 [Example 7, 3-Methyl-7-(4-((methyl(3-(methylsulfonyl)propyl)amino)methyl)phenyl)-1-phenyl-3,6-dihydroimidazo [4,5-d]pyrrolo[2,3-b]pyridin-2(1H)-one] | 6.30 to 7.00 | 7.00 to 8.00 | 6.30 to 7.00
Cn1c(=O)n(-c2ccccc2)c2c3cc(-c4ccc(CN5CCC(S(C)(=O)=O)CC5)c(F)c4)[nH]c3ncc21 [Example 8, 7-(3-Fluoro-4-((4-(methylsulfonyl)piperidin-1-yl)methyl)phenyl)-3-methyl-1-phenyl-3,6-dihydroimidazo[4,5-d]pyrrolo[2,3-b]pyridin-2(1H)-one] | 7.00 to 8.00 | 7.00 to 8.00 | 6.30 to 7.00
CCN1CCN(c2ccc(-c3cc4c(ncc5c4n(-c4ccccn4)c(=O)n5C)[nH]3)cc2)CC1 [Example 9, 7-(4-(4-Ethylpiperazin-1-yl)phenyl)-3-methyl-1-(pyridin-2-yl)-3,6-dihydroimidazo[4,5-d]pyrrolo[2,3-b]pyridin-2(1H)-one] | < 6.00 | < 6.00 | < 6.00
Cn1c(=O)n(C2CCCCC2)c2c3cc(-c4ccc(CN5CCC(S(C)(=O)=O)CC5)cc4)[nH]c3ncc21 [Example 10, 1-Cyclohexyl-3-methyl-7-(4-((4-(methylsulfonyl)piperidin-1-yl)methyl)phenyl)-3,6-dihydroimidazo[4,5-d]pyrrolo[2,3-b]pyridin-2(1H)-one] | 7.00 to 8.00 | 7.00 to 8.00 | 6.30 to 7.00
Cn1c(=O)n(C(C)(C)C)c2c3cc(-c4ccc(CN5CCC(S(C)(=O)=O)CC5)cc4)[nH]c3ncc21 [Example 11, 1-(tert-Butyl)-3-methyl-7-(4-((4-(methylsulfonyl)piperidin-1-yl)methyl)phenyl)-3,6-dihydroimidazo[4,5-d]pyrrolo[2,3-b]pyridin-2(1H)-one] | 7.00 to 8.00 | 7.00 to 8.00 | 7.00 to 8.00
Cn1c(=O)n(C2CCCCC2)c2c3cc(-c4cnn(CS(C)(=O)=O)c4)[nH]c3ncc21 [Example 12, 1-Cyclohexyl-3-methyl-7-(1-((methylsulfonyl)methyl)-1H-pyrazol-4-yl)-3,6-dihydroimidazo[4,5-d]pyrrolo[2,3-b]pyridin-2(1H)-one] | 7.00 to 8.00 | 7.00 to 8.00 | 6.30 to 7.00
CCn1c(=O)n(C2CCCC2)c2c3cc(-c4ccc(CN5CCC(S(C)(=O)=O)CC5)cc4)[nH]c3ncc21 [Example 13, 1-Cyclopentyl-3-ethyl-7-(4-((4-(methylsulfonyl)piperidin-1-yl)methyl)phenyl)-3,6-dihydroimidazo[4,5-d]pyrrolo[2,3-b] pyridin-2(1H)-one] | < 6.00 | 6.30 to 7.00 | < 6.00
Cn1cc(-c2cc3c(ncc4c3[nH]c(=O)n4C)[nH]2)cn1 [Example 14, 3-Methyl-7-(1-methyl-1H-pyrazol-4-yl)-3,6-dihydroimidazo[4,5-d]pyrrolo[2,3-b]pyridin-2(1H)-one] | < 6.00 | 6.30 to 7.00 | < 6.00
Cn1c(=O)n(C2CCCOC2)c2c3cc(-c4ccc(CN5CCC(S(C)(=O)=O)CC5)cc4)[nH]c3ncc21 (stereo not drawn) [Example 15, 3-Methyl-7-(4-((4-(methylsulfonyl)piperidin-1-yl)methyl)phenyl)-1-(tetrahydro-2H-pyran-3-yl)-3,6-dihydroimidazo[4,5-d]pyrrolo[2,3-b]pyridin-2(1H)-one] | 6.30 to 7.00 | 7.00 to 8.00 | 6.30 to 7.00
CCN1CCN(c2ccc(-c3cc4c(ncc5c4n(Cc4cnn(C)c4)c(=O)n5C)[nH]3)cc2)CC1 [Example 16, 7-(4-(4-Ethylpiperazin-1-yl)phenyl)-3-methyl-1-((1-methyl-1H-pyrazol-4-yl)methyl)-3,6-dihydroimidazo[4,5-d]pyrrolo[2,3-b]pyridin-2(1H)-one] | < 6.00 | 6.00 to 6.30 | < 6.00
